Structures can show the parent of a compound that is named as a salt.
Key:
[1] = test system: NMDA (N-methyl-D-aspartate) receptor; details: noncompetitive NMDA receptor antagonist; cited from earlier work
[2] = Physicochemical properties of the active ingredient (density, flow, particle size distribution); details: active ingredient used in Example 1
From the text: The different physicochemical properties of the active ingredient as well as excipients are to be considered, as these properties affect processing and the formulation properties of the compositions. Various physicochemical properties include, but are not limited to, particle size of the active ingredient, density (including bulk density and tapped density), compressibility index, Hausner's ratio, angle of repose, etc. The percentages of particles with different sizes that exist in a total powder, is the particle size distribution. It is represented in certain ways. Particle size is the maximun dimension of a particle, frequently expressed in micrometers. Particle size distributions can be expressed in terms of D10, D50, D90 and D[4,3]. The D10, D50 and D90 represent the 10th, median or the 50th percentile, and the 90th percentile of the particle size distribution, respectively, as measured by volume. That is, the D10, D50, D90 are values of the distribution such that 10%, 50%, and 90% of the particles have a size of this value or less […]. D50 also known as median diameter of particles. It is one of the important parameters representing characteristics of particle of powder. For a sample, if D50=5 μm, it means that 50% of the particles are smaller than 5 μm. Similarly, if D10=5 μm, 10% of the particles are less than or equal to 5 μm and if D90=5 μm, 90% of the particles have sizes less than or equal to 5 μm. D[4,3] is the volume moment mean of the particles or the volume weighted particle size.

[3] = cited from earlier work

Bulk density [2] | Compressibility index [2] | Hauser's ratio [2] | Particle size distribution: D(10) [2] | Particle size distribution: D(50) [2] | Particle size distribution: D(90) [2] | Tapped density [2] | Structure (SMILES) | Affinity for the receptor [1] | Blocking/unblocking kinetics [1] | Solubility in water [3]
– | – | – | – | – | – | – | C[C@]12CC3C[C@](C)(C1)C[C@@](N)(C3)C2 [Memantine, 1-amino-3,5-dimethyladamantane] | low to moderate affinity | rapid blocking/unblocking kinetics | –
0.317 g/mL | 31.83 | 1.467 | 10.744 μm | 60.545 μm | 210.482 μm | 0.465 g/mL | CC12CC3CC(C)(C1)CC(N)(C3)C2 [memantine hydrochloride] | – | – | highly soluble in water

From patent publication US20080182908A1, “PHARMACEUTICAL COMPOSITIONS COMPRISING MEMANTINE” (priority 2007, published 2008)
